As a reminder, the Cmax is the peak of the concentration-time curve. As a reminder, the Tmax is the time at which the peak concentration occurs. As a reminder, the half-life is the time in which the quantity being followed falls by half. Higher therefore signals slow loss. A word on the AUC(0-t): it is exposure summed from dosing to a finite time, without extrapolation to infinity.

From ChEMBL document CHEMBL3525971 (Drug Metab Dispos, 2011) come the findings set out here.

The nature of series [1]: Cmax in castrated pig plasma withdrawn from femoral vein at 10 mg/kg dosed via intrajejunal route by HPLC-UV. The settings on record: male.
Series [2] can be described thus: Tmax in castrated pig plasma withdrawn from femoral vein at 10 mg/kg dosed via intrajejunal route by HPLC-UV. The settings on record: male.
Series [3] can be described thus: Half life in castrated pig plasma withdrawn from femoral vein at 10 mg/kg dosed via intrajejunal route by HPLC-UV. The settings on record: male.
Series [4] is described as follows: AUC (0 to 6 hrs) in castrated pig plasma withdrawn from portal vein dosed via intrajejunal route by UPLC-tandem mass spectrometry. The settings on record: male.
The nature of series [5]: Cmax in castrated pig plasma withdrawn from portal vein at 10 mg/kg dosed via intrajejunal route by HPLC-UV. The conditions noted are these: male.
The nature of series [6]: AUC (0 to 6 hrs) in castrated pig plasma withdrawn from femoral vein dosed via intrajejunal route by UPLC-tandem mass spectrometry. The settings on record: male.
A short description of series [7]: Half life in castrated pig plasma withdrawn from portal vein at 10 mg/kg dosed via intrajejunal route by HPLC-UV. The conditions noted are these: male.
Series [8] is described as follows: Tmax in castrated pig plasma withdrawn from portal vein at 10 mg/kg dosed via intrajejunal route by HPLC-UV. The settings on record: male.
Series [9] can be described thus: Biliary excretion in castrated pig assessed as unchanged drug level treated with finasteride at 0.8 mg/kg administered as intrajejunal dose measured during 6 hrs sampling by UPLC-tandem mass spectrometry. Format: ADME, organism-based, Sus scrofa, Bile. Further details: dose 0.8 mg/kg. The settings on record: in vivo, other.
Series [10] is described as follows: Apparent biliary clearance in castrated pig treated with finasteride at 0.8 mg/kg administered as intrajejunal dose 20 mins after ketoconazole administration by UPLC-tandem mass spectrometry. Format: ADME, organism-based, Sus scrofa, Bile. Further details: dose 0.8 mg/kg. The conditions noted are these: in vivo.
Series [11] is described as follows: Apparent biliary clearance in castrated pig treated with finasteride at 0.2 mg/kg, iv by UPLC-tandem mass spectrometry. Format: ADME, organism-based, Sus scrofa, Bile. Further details: dose 0.2 mg/kg, route intravenous. The settings on record: in vivo.
Series [12] is described as follows: Drug excretion in castrated pig urine assessed as unchanged drug level treated with finasteride at 0.2 mg/kg, iv measured during 6 hrs sampling by UPLC-tandem mass spectrometry. The settings on record: in vivo. It counts as ADME, organism-based, Sus scrofa. Further details: dose 0.2 mg/kg, route intravenous.
The nature of series [13]: Biliary excretion in castrated pig assessed as unchanged drug level treated with finasteride at 0.8 mg/kg administered as intrajejunal dose 20 mins after ketoconazole administration measured during 6 hrs sampling by UPLC-tandem mass spectrometry. It counts as ADME, organism-based, Sus scrofa, Bile. Further details: dose 0.8 mg/kg. The settings on record: in vivo, other.

Series [14] is described as follows: Apparent biliary clearance in castrated pig treated with finasteride at 0.8 mg/kg administered as intrajejunal dose by UPLC-tandem mass spectrometry. Format: ADME, organism-based, Sus scrofa, Bile. Further details: dose 0.8 mg/kg. The settings on record: in vivo.
The nature of series [15]: Drug excretion in castrated pig urine assessed as unchanged drug level treated with finasteride at 0.8 mg/kg administered as intrajejunal dose 20 mins after ketoconazole administration measured during 6 hrs sampling by UPLC-tandem mass spectrometry. Format: ADME, organism-based, Sus scrofa. The settings on record: in vivo, other. Further details: dose 0.8 mg/kg.
A short description of series [16]: Drug excretion in castrated pig urine assessed as unchanged drug level treated with finasteride at 0.8 mg/kg administered as intrajejunal dose measured during 6 hrs sampling by UPLC-tandem mass spectrometry. It counts as ADME, organism-based, Sus scrofa. Further details: dose 0.8 mg/kg. The settings on record: in vivo, other.
Series [17] in a line: Biliary excretion in castrated pig assessed as unchanged drug level treated with finasteride at 0.2 mg/kg, iv measured during 6 hrs sampling by UPLC-tandem mass spectrometry. It counts as ADME, organism-based, Sus scrofa, Bile. Further details: dose 0.2 mg/kg, route intravenous. The conditions noted are these: in vivo.

In the case of `CC(=O)N1CCN(c2ccc(OCC3COC(Cn4ccnc4)(c4ccc(Cl)cc4Cl)O3)cc2)CC1` (configuration not stated) [KETOCONAZOLE], the Cmax in series [1] came to 3 µM; in series [5] it was 9 µM. The Tmax in series [2] is 1.8 h; in series [8], 0.7 h. Moreover, the half-life in series [3] is 4.1 h; in series [7] it was 3.1 h. The values for the AUC(0-t) at 6 h in [4] and in series [6] were 22 µM·h and 13 µM·h, respectively.
On to `CC(C)(NC(=O)[C@H]1CC[C@H]2[C@@H]3CC[C@H]4NC(=O)C=C[C@]4(C)[C@H]3CC[C@]12C)C(=O)O`, for which the Ae in series [9] is 1.2 µmol; in [12], 1.2 µmol; in series [13] it was 0.7 µmol; in series [15], 3.4 µmol; in series [16], 8.5 µmol; in series [17], 0.6 µmol. The “CL(app)” value in [10] was determined as 1.2 mL/min/kg; in series [11], 3.6 mL/min/kg; in [14], 2.4 mL/min/kg.
